Measurements reported in ChEMBL document CHEMBL5236631, “Design, synthesis and biological evaluation of novel 3,4-dihydro-2H-[1,4]oxazino [2,3-f]quinazolin derivatives as EGFR-TKIs” (Bioorg Med Chem Lett, 2023).

Assays:
[1] = molecular target: Epidermal growth factor receptor (Homo sapiens, UniProt P00533); assay: Inhibition of wild type EGFR (unknown origin) autophosphorylation by Kinase-Glo luminescent assay
NCI-H1563 = assay: Antiproliferative activity against human NCI-H1563 cells assessed as inhibition of cell growth; assay type: functional, cell-based
NCI-H1975 = assay: Antiproliferative activity against human NCI-H1975 cells harboring T790M mutation assessed as inhibition of cell growth; assay type: functional, cell-based
[2] = Cytotoxicity against human 16HBE14o- cells assessed as inhibition of cell growth by MTT assay; assay type: toxicity, cell-based

Sequence of Epidermal growth factor receptor (P00533 whole entry): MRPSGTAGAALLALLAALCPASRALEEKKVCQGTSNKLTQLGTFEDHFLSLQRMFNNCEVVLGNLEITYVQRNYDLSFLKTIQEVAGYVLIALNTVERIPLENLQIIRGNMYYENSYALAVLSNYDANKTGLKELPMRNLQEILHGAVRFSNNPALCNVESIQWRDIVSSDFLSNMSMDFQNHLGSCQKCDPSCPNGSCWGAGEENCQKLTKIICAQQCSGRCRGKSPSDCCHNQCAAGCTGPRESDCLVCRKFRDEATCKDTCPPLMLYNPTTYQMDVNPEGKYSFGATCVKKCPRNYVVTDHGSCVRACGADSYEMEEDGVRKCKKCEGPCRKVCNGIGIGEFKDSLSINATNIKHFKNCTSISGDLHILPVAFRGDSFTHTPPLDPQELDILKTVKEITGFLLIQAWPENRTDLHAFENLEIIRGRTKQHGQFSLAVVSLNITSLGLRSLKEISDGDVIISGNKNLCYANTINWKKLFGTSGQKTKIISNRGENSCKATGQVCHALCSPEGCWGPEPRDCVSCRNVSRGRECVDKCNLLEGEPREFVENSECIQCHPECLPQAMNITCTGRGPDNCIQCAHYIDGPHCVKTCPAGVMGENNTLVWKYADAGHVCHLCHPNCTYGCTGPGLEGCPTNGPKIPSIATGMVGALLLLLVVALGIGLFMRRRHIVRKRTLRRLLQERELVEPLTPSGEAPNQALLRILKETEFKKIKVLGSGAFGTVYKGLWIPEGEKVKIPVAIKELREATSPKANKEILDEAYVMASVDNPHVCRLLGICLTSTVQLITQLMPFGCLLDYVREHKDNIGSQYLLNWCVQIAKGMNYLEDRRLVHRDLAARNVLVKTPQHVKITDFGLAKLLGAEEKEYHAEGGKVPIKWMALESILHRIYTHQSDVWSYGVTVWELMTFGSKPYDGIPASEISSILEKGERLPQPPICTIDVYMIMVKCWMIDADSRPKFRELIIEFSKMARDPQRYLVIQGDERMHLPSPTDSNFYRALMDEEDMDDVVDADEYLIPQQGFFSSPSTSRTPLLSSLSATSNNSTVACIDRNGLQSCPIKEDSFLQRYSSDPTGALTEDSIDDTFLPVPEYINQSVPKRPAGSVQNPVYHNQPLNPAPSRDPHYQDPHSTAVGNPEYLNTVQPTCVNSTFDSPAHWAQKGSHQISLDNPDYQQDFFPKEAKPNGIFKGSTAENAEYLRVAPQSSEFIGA

Compound	IC50 [1] [nM]	IC50 (NCI-H1563) [nM]	IC50 (NCI-H1975) [nM]	CC50 [2] [nM]
CCC(=O)N1CCOc2c1ccc1ncnc(Nc3cccc(C(F)(F)F)c3)c21	838	> 40000	> 40000	
CC(=O)N1CCOc2c1ccc1ncnc(Nc3ccc(F)c(Cl)c3)c21	47.2	> 40000	> 40000	
CC(=O)N1CCOc2c1ccc1ncnc(Nc3cccc(Br)c3)c21	45.6	> 40000	> 40000	1400
CN1CCN(CCC(=O)N2CCOc3c2ccc2ncnc(Nc4cccc(C(F)(F)F)c4)c32)CC1	148	21200	4370	
CC(=O)N1CCOc2c1ccc1ncnc(Nc3cccc(C(F)(F)F)c3)c21	534	> 40000	> 40000	
Brc1cccc(Nc2ncnc3ccc4c(c23)OCCN4)c1	120	< 1250	15600	
CN1CCN(CCC(=O)N2CCOc3c2ccc2ncnc(Nc4cccc(Br)c4)c32)CC1	40.7	12500	4160	1350
CCC(=O)N1CCOc2c1ccc1ncnc(Nc3ccc(F)c(Cl)c3)c21	70.6	> 40000	> 40000	
Fc1ccc(Nc2ncnc3ccc4c(c23)OCCN4)cc1Cl	87.3	< 1250	1600	130
FC(F)(F)c1cccc(Nc2ncnc3ccc4c(c23)OCCN4)c1	938	> 40000	4180	
CCC(=O)N1CCOc2c1ccc1ncnc(Nc3cccc(Br)c3)c21	70.3	24800	3600	1250
COCCOc1cc2ncnc(Nc3cccc(Cl)c3)c2c2c1OC(COC)CO2 (stereo not given)	10.3			
CN1CCN(CCC(=O)N2CCOc3c2ccc2ncnc(Nc4ccc(F)c(Cl)c4)c32)CC1	25.7	10600	3250	1240
C#Cc1cccc(Nc2ncnc3cc(OCCOC)c(OCCOC)cc23)c1 [ERLOTINIB]		8170	4670	1320
